Where two headings read alike, the source gives them in different places. Where a SMILES comes first, the peptide text is derived from it. Bridges are numbered along the chain shown (N, C = ends). Where no end group is shown, it is not given here.
B1: [des-Arg-44]hAM(13-52) (peptide)
peptide: SFGCRFGTCTVQKLAHQIYQFTDKDKDNVAPSKISPQGY-NH2
modifications: disulfide 4-9; N-terminus assumed
SMILES: CC[C@H](C)[C@H](NC(=O)[C@H](CCC(N)=O)NC(=O)[C@H](Cc1c[nH]cn1)NC(=O)[C@H](C)NC(=O)[C@H](CC(C)C)NC(=O)[C@H](CCCCN)NC(=O)[C@H](CCC(N)=O)NC(=O)[C@@H](NC(=O)[C@@H](NC(=O)[C@@H]1CSSC[C@H](NC(=O)CNC(=O)[C@H](Cc2ccccc2)NC(=O)[C@@H](N)CO)C(=O)N[C@@H](CCCNC(=N)N)C(=O)N[C@@H](Cc2ccccc2)C(=O)NCC(=O)N[C@@H]([C@@H](C)O)C(=O)N1)[C@@H](C)O)C(C)C)C(=O)N[C@@H](Cc1ccc(O)cc1)C(=O)N[C@@H](CCC(N)=O)C(=O)N[C@@H](Cc1ccccc1)C(=O)N[C@H](C(=O)N[C@@H](CC(=O)O)C(=O)N[C@@H](CCCCN)C(=O)N[C@@H](CC(=O)O)C(=O)N[C@@H](CCCCN)C(=O)N[C@@H](CC(=O)O)C(=O)N[C@@H](CC(N)=O)C(=O)N[C@H](C(=O)N[C@@H](C)C(=O)N1CCC[C@H]1C(=O)N[C@@H](CO)C(=O)N[C@@H](CCCCN)C(=O)N[C@H](C(=O)N[C@@H](CO)C(=O)N1CCC[C@H]1C(=O)N[C@@H](CCC(N)=O)C(=O)NCC(=O)N[C@@H](Cc1ccc(O)cc1)C(N)=O)[C@@H](C)CC)C(C)C)[C@@H](C)O
B2: [Phe-44]hAM(13-52) (peptide)
peptide: SFGCRFGTCTVQKLAHQIYQFTDKDKDNVAPFSKISPQGY-NH2
modifications: disulfide 4-9; N-terminus assumed
SMILES: CC[C@H](C)[C@H](NC(=O)[C@H](CCC(N)=O)NC(=O)[C@H](Cc1c[nH]cn1)NC(=O)[C@H](C)NC(=O)[C@H](CC(C)C)NC(=O)[C@H](CCCCN)NC(=O)[C@H](CCC(N)=O)NC(=O)[C@@H](NC(=O)[C@@H](NC(=O)[C@@H]1CSSC[C@H](NC(=O)CNC(=O)[C@H](Cc2ccccc2)NC(=O)[C@@H](N)CO)C(=O)N[C@@H](CCCNC(=N)N)C(=O)N[C@@H](Cc2ccccc2)C(=O)NCC(=O)N[C@@H]([C@@H](C)O)C(=O)N1)[C@@H](C)O)C(C)C)C(=O)N[C@@H](Cc1ccc(O)cc1)C(=O)N[C@@H](CCC(N)=O)C(=O)N[C@@H](Cc1ccccc1)C(=O)N[C@H](C(=O)N[C@@H](CC(=O)O)C(=O)N[C@@H](CCCCN)C(=O)N[C@@H](CC(=O)O)C(=O)N[C@@H](CCCCN)C(=O)N[C@@H](CC(=O)O)C(=O)N[C@@H](CC(N)=O)C(=O)N[C@H](C(=O)N[C@@H](C)C(=O)N1CCC[C@H]1C(=O)N[C@@H](Cc1ccccc1)C(=O)N[C@@H](CO)C(=O)N[C@@H](CCCCN)C(=O)N[C@H](C(=O)N[C@@H](CO)C(=O)N1CCC[C@H]1C(=O)N[C@@H](CCC(N)=O)C(=O)NCC(=O)N[C@@H](Cc1ccc(O)cc1)C(N)=O)[C@@H](C)CC)C(C)C)[C@@H](C)O
B3: [Gly-44]hAM(13-52) (peptide)
peptide: SFGCRFGTCTVQKLAHQIYQFTDKDKDNVAPGSKISPQGY-NH2
modifications: disulfide 4-9; N-terminus assumed
SMILES: CC[C@H](C)[C@H](NC(=O)[C@H](CCC(N)=O)NC(=O)[C@H](Cc1c[nH]cn1)NC(=O)[C@H](C)NC(=O)[C@H](CC(C)C)NC(=O)[C@H](CCCCN)NC(=O)[C@H](CCC(N)=O)NC(=O)[C@@H](NC(=O)[C@@H](NC(=O)[C@@H]1CSSC[C@H](NC(=O)CNC(=O)[C@H](Cc2ccccc2)NC(=O)[C@@H](N)CO)C(=O)N[C@@H](CCCNC(=N)N)C(=O)N[C@@H](Cc2ccccc2)C(=O)NCC(=O)N[C@@H]([C@@H](C)O)C(=O)N1)[C@@H](C)O)C(C)C)C(=O)N[C@@H](Cc1ccc(O)cc1)C(=O)N[C@@H](CCC(N)=O)C(=O)N[C@@H](Cc1ccccc1)C(=O)N[C@H](C(=O)N[C@@H](CC(=O)O)C(=O)N[C@@H](CCCCN)C(=O)N[C@@H](CC(=O)O)C(=O)N[C@@H](CCCCN)C(=O)N[C@@H](CC(=O)O)C(=O)N[C@@H](CC(N)=O)C(=O)N[C@H](C(=O)N[C@@H](C)C(=O)N1CCC[C@H]1C(=O)NCC(=O)N[C@@H](CO)C(=O)N[C@@H](CCCCN)C(=O)N[C@H](C(=O)N[C@@H](CO)C(=O)N1CCC[C@H]1C(=O)N[C@@H](CCC(N)=O)C(=O)NCC(=O)N[C@@H](Cc1ccc(O)cc1)C(N)=O)[C@@H](C)CC)C(C)C)[C@@H](C)O

Key:
in vitro [1] = test: in vitro
Experimental: After the lapse of a predetermined time, a 30-μl portion was taken out of the reaction solution, transferred into 170 μl of 0.1% aqueous solution of trifluoroacetic acid (TFA), and stored at −80° C. until analysis.
Quantitative analysis was performed for AM contained in the thus-obtained samples of a reaction mixture with serum or plasma by using specific fluoroimmunoassay (Tosoh Corporation) with two antibodies differing in their recognition sites. […] In the figure, the abscissa represents reaction time (min), and the ordinate represents concentration of AM (UM).
In the figure, the abscissa represents reaction time (min), and the ordinate represents concentration of AM or an AM analog (μM).
In the figure, the abscissa represents the type of AM or an AM analog, and the ordinate represents residual rates of AM or an AM analog (%).

in vivo [2] = test: in vivo
Experimental: Seven-week-old male Wistar rats were prepared, and grown with normal feeds. To determine plasma AM concentrations, 50 nmol/kg of AM or an AM analog was subcutaneously administered. A peripheral blood sample was collected from the tail vein into a Kantan tube® (containing heparin Na, Eiken Chemical Co., Ltd., Tochigi, Japan) at predetermined times (0, 15, 30, 60, and 120 minutes after administration). The tube was centrifuged at 2,000×g. Plasma was collected from the tube, and transferred into a test tube (containing 21 μg of aprotinin and 0.3 mg of EDTA-2Na) and stored. […] In the figure, the abscissa represents elapsed time after subcutaneous administration (hr), and the ordinate represents concentration in plasma of AM or an AM analog (pM). In addition, maximum concentrations in blood (Cmax) of AM or the AM analogs in rat plasma after subcutaneous administration were calculated.

[3] = 50 nmol/kg subcutaneous, Experiment VI
Experimental: (§1) Eight-week-old male Wistar rats were purchased from Charles River Laboratories Japan, Inc. The rats were grown with normal feeds in the absence of specific pathogens under cycles of a 12-hour light period and a 12-hour dark period. […] To determine plasma AM concentrations, 50 nmol/kg of AM or an AM analog was subcutaneously administered. A peripheral blood sample was collected from the tail vein into a test tube (containing 21 μg of aprotinin and 0.3 mg of EDTA-2Na) at predetermined times (0, 15, 30, 60, and 120 minutes after administration). The test tube was centrifuged at 1,700×g to afford plasma.

in vivo [4] = conditions: male, Wistar, rat, sc, 50 nmol/kg; for AUC: in vivo
Experimental: as §1

in vitro [5] = conditions: Experiment VIII; 10^−7 M, 37° C.; 1 hour after the beginning of reaction
Experimental: The stabilities of the AM analog peptides in serum were evaluated with the same procedure as in Experiment I except the following procedure. […] A reaction mixture containing 4 μL of phosphate buffer, 20 μL of human serum (Sigma-Aldrich Co. LLC, USA), and 14 μL of water was prepared. To the reaction mixture, 2 μL of AM or an AM analog peptide (2×10^−6 M, final concentration: 10^−7 M) was added, and reaction was initiated at 37° C. The reaction was terminated by addition of 160 μL of ELISA buffer to the reaction mixture 0, 1, or 4 hours after the beginning of reaction. […] In the figure, the abscissa represents reaction time (hr), and the ordinate represents concentration in serum of AM or an AM analog (%) represented as relative values to concentration of AM or an AM analog at the beginning of reaction (i.e., 0 hours after the beginning of reaction).

[6] = target: AM type 1 receptor (AMI receptor) (UniProt Q16602 23-461; O60895 43-175, limits assumed); test: cell-based or functional assay
Sequence of AM type 1 receptor (AMI receptor) (Q16602 23-461 limits assumed, chain 1 of 2): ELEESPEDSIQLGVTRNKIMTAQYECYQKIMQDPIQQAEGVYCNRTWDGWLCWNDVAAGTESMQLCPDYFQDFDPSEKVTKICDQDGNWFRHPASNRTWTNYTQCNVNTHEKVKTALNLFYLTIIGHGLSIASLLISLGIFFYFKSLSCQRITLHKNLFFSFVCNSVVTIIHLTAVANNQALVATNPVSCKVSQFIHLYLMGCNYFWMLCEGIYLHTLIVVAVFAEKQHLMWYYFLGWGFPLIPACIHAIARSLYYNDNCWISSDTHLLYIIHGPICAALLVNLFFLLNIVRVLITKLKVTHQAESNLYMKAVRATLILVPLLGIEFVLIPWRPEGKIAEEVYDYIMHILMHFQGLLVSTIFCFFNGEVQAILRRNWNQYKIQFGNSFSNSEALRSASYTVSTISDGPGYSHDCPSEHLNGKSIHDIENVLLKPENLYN
Sequence of AM type 1 receptor (AMI receptor) (O60895 43-175 limits assumed, chain 2 of 2): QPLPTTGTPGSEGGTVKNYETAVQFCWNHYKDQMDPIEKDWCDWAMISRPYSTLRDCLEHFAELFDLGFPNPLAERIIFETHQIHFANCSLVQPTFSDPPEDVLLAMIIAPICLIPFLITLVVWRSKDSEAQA

Molecule	detection in rat plasma after subcutaneous administration [3]	AUC (in vivo [4]) [nM·h]	Cmax (in vivo [4]; plasma) [nM]	logarithmic values of 50%-effective concentration (pEC50) for intracellular cAMP concentration-increasing activity [6] [pEC50]	other results
CC[C@H](C)[C@H](NC(=O)[C@H](CCC(N)=O)NC(=O)[C@H](Cc1c[nH]cn1)NC(=O)[C@H](C)NC(=O)[C@H](CC(C)C)NC(=O)[C@H](CCCCN)NC(=O)[C@H](CCC(N)=O)NC(=O)[C@@H](NC(=O)[C@@H](NC(=O)[C@@H]1CSSC[C@H](NC(=O)CNC(=O)[C@H](Cc2ccccc2)NC(=O)[C@@H](N)CO)C(=O)N[C@@H](CCCNC(=N)N)C(=O)N[C@@H](Cc2ccccc2)C(=O)NCC(=O)N[C@@H]([C@@H](C)O)C(=O)N1)[C@@H](C)O)C(C)C)C(=O)N[C@@H](Cc1ccc(O)cc1)C(=O)N[C@@H](CCC(N)=O)C(=O)N[C@@H](Cc1ccccc1)C(=O)N[C@H](C(=O)N[C@@H](CC(=O)O)C(=O)N[C@@H](CCCCN)C(=O)N[C@@H](CC(=O)O)C(=O)N[C@@H](CCCCN)C(=O)N[C@@H](CC(=O)O)C(=O)N[C@@H](CC(N)=O)C(=O)N[C@H](C(=O)N[C@@H](C)C(=O)N1CCC[C@H]1C(=O)N[C@@H](C)C(=O)N[C@@H](CO)C(=O)N[C@@H](CCCCN)C(=O)N[C@H](C(=O)N[C@@H](CO)C(=O)N1CCC[C@H]1C(=O)N[C@@H](CCC(N)=O)C(=O)NCC(=O)N[C@@H](Cc1ccc(O)cc1)C(N)=O)[C@@H](C)CC)C(C)C)[C@@H](C)O [[Ala-44]hAM(13-52), SFGCRFGTCTVQKLAHQIYQFTDKDKDNVAPASKISPQGY-CONH2] (H-SFGCRFGTCTVQKLAHQIYQFTDKDKDNVAPASKISPQGY-NH2; disulfide 4-9; N-terminus assumed)	detected in rat plasma 15 minutes after administration	0.578	1.17		change in amount with the lapse of reaction time in reaction mixture with serum (in vitro [1]; Experiment IV, up to 240 minutes): almost no decrease or only slight decrease in amount; remaining at 4 h (in vitro [1]; serum, pH 7.1): 96.4%; detection in rat plasma after subcutaneous administration (in vivo [2]; 50 nmol/kg subcutaneous, Experiment X): detected in rat plasma 15 minutes after administration; Cmax (in vivo [2]; male, Wistar, rat, in vivo, sc, 50 nmol/kg): 0.777 nM; Cmax relative to that of hAM(1-52) ([3]; rat): ≥ 100 times; half-life (in vivo [4]; plasma): 1.37 h
CC[C@H](C)[C@H](NC(=O)[C@H](CCC(N)=O)NC(=O)[C@H](Cc1c[nH]cn1)NC(=O)[C@H](C)NC(=O)[C@H](CC(C)C)NC(=O)[C@H](CCCCN)NC(=O)[C@H](CCC(N)=O)NC(=O)[C@@H](NC(=O)[C@@H](NC(=O)[C@@H]1CSSC[C@H](NC(=O)CNC(=O)[C@H](Cc2ccccc2)NC(=O)[C@@H](N)CO)C(=O)N[C@@H](CCCNC(=N)N)C(=O)N[C@@H](Cc2ccccc2)C(=O)NCC(=O)N[C@@H]([C@@H](C)O)C(=O)N1)[C@@H](C)O)C(C)C)C(=O)N[C@@H](Cc1ccc(O)cc1)C(=O)N[C@@H](CCC(N)=O)C(=O)N[C@@H](Cc1ccccc1)C(=O)N[C@H](C(=O)N[C@@H](CC(=O)O)C(=O)N[C@@H](CCCCN)C(=O)N[C@@H](CC(=O)O)C(=O)N[C@@H](CCCCN)C(=O)N[C@@H](CC(=O)O)C(=O)N[C@@H](CC(N)=O)C(=O)N[C@H](C(=O)N[C@@H](C)C(=O)N1CCC[C@H]1C(=O)N[C@@H](CCCNC(=N)N)C(=O)N[C@@H](CO)C(=O)N[C@@H](CCCCN)C(=O)N[C@H](C(=O)N[C@@H](CO)C(=O)N1CCC[C@H]1C(=O)N[C@@H](CCC(N)=O)C(=O)NCC(=O)N[C@@H](Cc1ccc(O)cc1)C(N)=O)[C@@H](C)CC)C(C)C)[C@@H](C)O [hAM(13-52), SFGCRFGTCTVQKLAHQIYQFTDKDKDNVAPRSKISPQGY-CONH2, reference compound]	hardly detected	0.0832	0.165		concentration of AM or AM analog in reaction mixture with serum (in vitro [1]; Experiment IV, 240 minutes after the beginning of reaction): below the detection limit; residual rate in reaction mixture with serum (in vitro [1]; Experiment IV, 240 minutes vs 0 minutes after the beginning of reaction): 0.2%; presence in reaction mixture with human serum (in vitro [5]): substantially disappeared
B1				8.71	
B2				8.29	
B3				7.96	

From patent US12637499B2, “Adrenomedullin analog, method for producing the same, and pharmaceutical use thereof” (priority 2020, dated 2026)
